Assay results published in patent publication US20250304535A1, “KAT6 Inhibitors” (BeiGene Switzerland GmbH, priority 2024, published 2025).

Experiments:
[1] = system: histone H3K23 acetylation in U-2 OS cells; test: Histone H3 lysine 23 acetylation assay in U-2 OS cells (high content analysis); type: cell-based; conditions: Homo sapiens, U2OS, 24 hrs exposure, H3K23ac level
In short: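 U-2 OS cells seeded overnight, then exposed 24 h to a 9-point compound dilution series; 0.1% DMSO medium as blank. Fixed, permeabilised, stained with anti-H3K23ac plus Alexa Fluor 647 secondary and DAPI; nuclear H3K23ac intensity read by high-content imaging. Inhibition = mean per-well cell intensity relative to on-plate blanks.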

[2] = biological target: Recombinant human KAT6A protein (497-780) (Homo sapiens (Human), UniProt Q92794); test: KAT6A biochemical TR-FRET assay; conditions: histone H4 peptide 2000 nM, AcCoA 300 nM, enzyme 5 nM
[3] = biological target: Recombinant human KAT6B protein (657-1069) (Homo sapiens (Human), UniProt Q8WYB5); test: KAT6B biochemical TR-FRET assay; conditions: histone H4 peptide 1000 nM, AcCoA 100 nM, enzyme 5 nM
Sequence of Recombinant human KAT6B protein (657-1069) (Q8WYB5 657-1069): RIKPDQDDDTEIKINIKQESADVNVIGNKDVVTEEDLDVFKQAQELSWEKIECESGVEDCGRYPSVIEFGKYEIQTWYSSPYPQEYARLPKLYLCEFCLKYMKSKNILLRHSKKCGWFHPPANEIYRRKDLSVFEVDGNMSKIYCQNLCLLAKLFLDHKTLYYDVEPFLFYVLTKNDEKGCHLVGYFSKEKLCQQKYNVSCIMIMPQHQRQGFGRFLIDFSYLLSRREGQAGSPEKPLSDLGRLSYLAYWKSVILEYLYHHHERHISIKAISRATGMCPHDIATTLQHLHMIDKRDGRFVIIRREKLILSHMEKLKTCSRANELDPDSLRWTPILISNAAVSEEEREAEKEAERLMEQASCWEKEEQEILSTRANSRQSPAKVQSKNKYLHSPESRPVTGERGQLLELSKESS

Sequence of Recombinant human KAT6A protein (497-780) (Q92794 497-780): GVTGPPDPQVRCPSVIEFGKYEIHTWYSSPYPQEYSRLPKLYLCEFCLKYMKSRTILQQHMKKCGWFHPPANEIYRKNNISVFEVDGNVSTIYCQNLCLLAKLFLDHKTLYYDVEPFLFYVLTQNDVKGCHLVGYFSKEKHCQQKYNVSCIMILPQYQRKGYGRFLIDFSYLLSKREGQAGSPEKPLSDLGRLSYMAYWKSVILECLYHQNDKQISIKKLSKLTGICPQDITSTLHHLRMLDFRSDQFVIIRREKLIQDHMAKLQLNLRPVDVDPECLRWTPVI

IC50 [1] [nM]	IC50 [2] [nM]	IC50 [3] [nM]	Compound
≤ 10	≤ 5	≤ 5	COc1cc(C(=O)NS(=O)(=O)c2cc(C(C)(C)C)ccc2OC)ccc1Cn1cccn1 [Example C7, 4-((1H-pyrazol-1-yl)methyl)-N-((5-(tert-butyl)-2-methoxyphenyl)sulfonyl)-3-methoxybenzamide]
≤ 10	≤ 5	≤ 5	COc1ccc(C(C)(C)C)cc1S(=O)(=O)NC(=O)c1ccc(Cn2cccn2)c(C2CC2)n1 [Example C8, 5-((1H-pyrazol-1-yl)methyl)-N-((5-(tert-butyl)-2-methoxyphenyl)sulfonyl)-6-cyclopropyl-picolinamide]
≤ 10	≤ 5	≤ 5	COc1ccc(C(C)(C)C)cc1S(=O)(=O)NC(=O)c1ccc(Cn2cccn2)c(-c2ccco2)c1 [Example C5, 4-((1H-pyrazol-1-yl)methyl)-N-((5-(tert-butyl)-2-methoxyphenyl)sulfonyl)-3-(furan-2-yl)benzamide]
≤ 10	≤ 5	≤ 5	COc1ccc(C(C)(C)C)cc1S(=O)(=O)NC(=O)c1ccc(Cn2cccn2)c(C2CCO2)c1 (stereo not drawn) [Example C18, 4-((1H-pyrazol-1-yl)methyl)-N-((5-(tert-butyl)-2-methoxyphenyl)sulfonyl)-3-(oxetan-2-yl)benzamide]
≤ 10	≤ 5	≤ 5	CCc1cc(C(=O)NS(=O)(=O)c2cc(C(C)(C)C)ccc2OC)ccc1Cn1cccn1 [Example C6, 4-((1H-pyrazol-1-yl)methyl)-N-((5-(tert-butyl)-2-methoxyphenyl)sulfonyl)-3-ethylbenzamide]
